Holding throughout (assay type): cell-based
Assay [1] deals with human dermal fibroblasts from Huntington's patients. As to the kind of experiment: Rescue of fibroblasts from Huntington's patients from oxidative stress. As to conditions: Fibroblast, Huntington's cells GM 04281, screen similar to Example 1, read-out: protection against Huntington's, EC50.
The test system of assay [2] is Human dermal fibroblasts from Friedreich's Ataxia patients. Description: Rescue of BSO-stressed FRDA fibroblasts (Calcein AM viability). As to conditions: FRDA fibroblasts GM04078, 1 mM BSO, 48 h, read-out: protection against FRDA, EC50. How it is done:
Test samples and solvent controls were tested for their ability to rescue FRDA fibroblasts stressed by addition of L-buthionine-(S,R)-sulfoximine (BSO), as described in Jauslin et al., Hum. Mol. Genet. 11(24):3055 (2002), Jauslin et al., FASEB J. 17:1972-4 (2003), and International Patent Application WO 2004/003565. […] This specific BSO-mediated cell death can be prevented by administration of antioxidants or molecules involved in the antioxidant pathway, such as alpha-tocopherol, selenium, or small molecule glutathione peroxidase mimetics. However, antioxidants differ in their potency, i.e. the concentration at which they are able to rescue BSO-stressed FRDA fibroblasts.
MEM (a medium enriched in amino acids and vitamins, catalog no. 1-31F24-I) and Medium 199 (M199, catalog no. 1-21F22-I) with Earle's Balanced Salts, without phenol red, were purchased from Bioconcept. Fetal Calf Serum was obtained from PAA Laboratories. Basic fibroblast growth factor and epidermal growth factor were purchased from PeproTech. 2,3,5-trimethyl-6-(12-hydroxy-5,10-dodecadiynyl)-1,4-benzoquinone, penicillin-streptomycin-glutamine mix, L-buthionine (S,R)-sulfoximine, and insulin from bovine pancreas were purchased from Sigma. Calcein AM was purchased from Molecular Probes. […]

For assay [3], the system named is human dermal fibroblasts from Parkinson's Disease patients. Description: Rescue of fibroblasts from Parkinson's Disease patients from oxidative stress. As to conditions: Fibroblast, PD cells AG20439, screen similar to Example 1, read-out: protection against Parkinson's Disease, EC50.
In assay [4] the test system is human dermal fibroblasts from LHON patients. As to the kind of experiment: Rescue of fibroblasts from LHON patients from oxidative stress. As to conditions: Fibroblast, LHON cells GM03858, screen similar to Example 1, read-out: protection against LHON, EC50.

As usually defined, the EC50 is the concentration giving half of the maximal effect.

`CC1=C(C)C(=O)C(CCCCC#CCCCC#CCO)=C(C)C1=O` [2,3,5-trimethyl-6-(12-hydroxy-5,10-dodecadiynyl)-1,4-benzoquinone]: the EC50 is < 50 nM in assay [1], < 100 nM in assay [2], < 100 nM in assay [3] and < 100 nM in assay [4].

(Values after patent US9629815B2, “Benzoquinone derivatives for treating oxidative stress disorders” (Edison Pharmaceuticals, Inc., priority 2012, dated 2017).)
